The values that follow come from paper PMC9600708 (Molecular cancer therapeutics, 2022).

“Also recorded” adds a separate entry of the source. Bounds are passed on as bounds.

Data set [1] relates to MCF-7 xenograft. Briefly: MCF-7 xenograft, OKI-179 in combination with tamoxifen. To be noted: OKI-179 60 mg/kg PO 5 days on 2 days off, tamoxifen 25 mg/kg SQ 3 times a week.
The test system of data set [2] is HDAC-8. To be noted: read-out: IC50 HDAC-8; cell-free biochemical assay, previously published; cited from earlier work.
Data set [3] in a line: Plasma and tumor pharmacokinetics of OKI-005 in HCT-116 tumor-bearing mice. Format: in vivo, BALB/c nude mice.
In data set [4] the test system is HDAC-5. The settings on record: read-out: IC50 HDAC-5; cell-free biochemical assay, previously published; cited from earlier work.
Data set [5] is described as follows: Plasma persistence of OKI-006 across preclinical models. The settings on record: depending on the dose and model (mouse vs. rat vs. dog). It counts as in vivo.
For data set [6], the system named is HDAC-7. To be noted: read-out: IC50 HDAC-7; cell-free biochemical assay, previously published; cited from earlier work.
Data set [7] deals with HDAC-6. To be noted: read-out: IC50 HDAC-6; cell-free biochemical assay, previously published; cited from earlier work.
Data set [8] concerns HDAC-4. To be noted: read-out: IC50 HDAC-4; cell-free biochemical assay, previously published; cited from earlier work.
Data set [9] relates to HDAC-9. To be noted: read-out: IC50 HDAC-9; cell-free biochemical assay, previously published; cited from earlier work.
Data set [10] relates to HDAC-3. To be noted: read-out: IC50 HDAC-3; cell-free biochemical assay, previously published; cited from earlier work.
The test system of data set [11] is HDAC-2. To be noted: read-out: IC50 HDAC-2; cell-free biochemical assay, previously published; cited from earlier work.
Data set [12] concerns HDAC-1. The settings on record: read-out: IC50 HDAC-1; cell-free biochemical assay, previously published; cited from earlier work.
The test system of data set [13] is advanced solid tumors. The settings on record: continuous dosing, patients with advanced solid tumors; cited from earlier work.
In data set [14] the test system is MDA-MB-231 xenograft. Put plainly: MDA-MB-231 xenograft efficacy study. To be noted: OKI-179 40-80 mg/kg PO daily, 120 mg PO every other day. It counts as in vivo, BALB/c nude mice.
Data set [15] relates to acetylated histone H3. Briefly: MDA-MB-231 xenograft pharmacodynamics. Format: in vivo, nude mice. The settings on record: OKI-179 40, 60 or 80 mg/kg PO daily x 3 or 10 days.
Data set [16] has as its system HCT-116 xenografts. Briefly: HCT-116 xenograft efficacy study. Format: in vivo. The settings on record: for TGI compared to vehicle control: HCT-116 xenograft.
For data set [17], the system named is MDA-MB-231 xenograft. The settings on record: addition of OKI-179 to nivolumab; cited from earlier work.
The subject of data set [18] is HCC1395 cell line. Put plainly: SRB proliferation assay. It counts as cell-based, human. To be noted: read-out: IC50 proliferation, 72 hours.
Data set [19] deals with CAL-120 cell line. Briefly: SRB proliferation assay. It counts as cell-based, human. The settings on record: read-out: IC50 proliferation; CAL-120, SRB, 72 hours.
The test system of data set [20] is luciferase-labeled MDA-MB-231 cells. Briefly: MDA-MB-231 luciferase-labeled metastasis model. Format: in vivo, BALB/c nude mice. The settings on record: OKI-005 10 mg/kg IP 3 times a week for 30 days.
Data set [21] concerns Hs578T cell line. Briefly: SRB proliferation assay. It counts as cell-based, human. To be noted: read-out: IC50 proliferation, 72 hours.
In data set [22] the test system is CAL-120 cells. Put plainly: Cell cycle analysis. Format: cell-based, human. To be noted: CAL-120, 24 hours, 0-200 nM.
The test system of data set [23] is acetyl-histone H3 and acetyl H3K9. Briefly: HCT-116 xenograft pharmacodynamics. Format: in vivo, BALB/c nude mice.
For data set [24], the system named is MDA-MB-231 cell line. Briefly: SRB proliferation assay. Format: cell-based, human. To be noted: read-out: IC50 proliferation; MDA-MB-231, SRB, 72 hours.
Data set [25] concerns sensitive and resistant TNBC cell lines. Put plainly: Immunoblotting of protein acetylation and p21. The settings on record: 24 hours, immunoblot. Format: cell-based, human.

With `CC/C(=C(\c1ccccc1)c1ccc(OCCN(C)C)cc1)c1ccccc1` [tamoxifen, reference compound], the tumor growth inhibition entry in [1] was “active”.
For `CC(C)[C@@H]1NC(=O)C(C)(C)NC(=O)c2csc(n2)CNC(=O)C[C@@H](/C=C/CCS)OC1=O` [OKI-006], the IC50 in data set [2] was 47 nM; in data set [4], > 1000 nM; in data set [6], > 1000 nM; in data set [7], 47 nM; in [8], > 1000 nM; in data set [9], > 1000 nM. In addition, the values for the IC50 in [10], in data set [11] and in data set [12] were 2 nM, 2.4 nM and 1.2 nM, respectively. Besides, in data set [3] (OKI-006 after single dose of OKI-005 PO or IP), the “tumor concentrations versus plasma levels” value was “exceeded plasma levels at all time points”. For the same compound, the “persistence of plasma concentrations > 100 nM following a single dose” value in data set [5] was 4 to 12 h.
In the case of `CC(C)[C@H](N)C(=O)SCC/C=C/[C@@H]1CC(=O)NCc2nc(cs2)C(=O)NC(C)(C)C(=O)N[C@@H](C(C)C)C(=O)O1` [OKI-179], in [13], the dose-limiting toxicity result is “dose-limiting thrombocytopenia”. Further, the tumor growth inhibition entry in data set [14] is reported as “statistically significant tumor growth inhibition at higher doses”; in data set [1] it was “active”. In addition, the “acetylated histone H3 in tumor” value in data set [15] is given as “increase in acetylated histone H3”. Also, the “body weight / tolerability” value in data set [16] (OKI-179 100 mg/kg oral daily, animals) is “weight loss”. For the same compound, the “tumor growth at day 24” value in data set [16] (OKI-179 40-80 mg/kg PO daily and 120 mg PO every other day, all doses and schedules) was “statistically significant decreased tumor growth”. The “tumor growth inhibition and T-cell activation” value in data set [17] was “improved tumor growth inhibition and increased T-cell activation”.
Consider `CCCCCCCC(=O)SCC/C=C/[C@@H]1CC(=O)NCc2nc(cs2)C(=O)NC(C)(C)C(=O)N[C@@H](C(C)C)C(=O)O1` [OKI-005], for which the IC50 is > 500 nM in [18], < 100 nM in data set [19], > 500 nM in data set [21] and < 100 nM in [24]. Moreover, the half-life in plasma in data set [3] (PO dosing of OKI-005, metabolite OKI-006 measured, HCT-116 tumor-bearing mice) is < 2 h. Further, in [20], the “primary tumor growth and metastasis (number of thoracic metastasis)” value is “statistically significant inhibition”. Moreover, the “cell cycle effect (G1 and S phase fraction)” value in data set [22] was “trend towards an increase in G1 and a decrease in the cell fraction in S phase”. Moreover, the “acetyl-histone H3 and acetyl H3K9 in tumor” value in data set [23] (1 hour post-dose, HCT-116 xenograft) was “dose-dependent increase”. In data set [23] (OKI-005 100 mg/kg), the “time of highest acetyl-Histone H3 and acetyl H3K9 levels post-treatment” value was 4 h. The “time of return of acetyl-Histone H3 and acetyl H3K9 to baseline post-dose” value in data set [23] (OKI-005 100 mg/kg) was 24 h. Further, the “TGI compared to vehicle control” value is reported as 28.1% in [16] (OKI-005 30 mg/kg, P = 0.025) and 75.6% in [16] (OKI-005 100 mg/kg, P < 0.001). Besides, in data set [16] (OKI-005 100 mg/kg PO daily, mice, 100 mg/kg), the “body weight / tolerability” value is recorded as “weight loss related to treatment requiring dose reduction; also recorded: dose-limiting treatment-related toxicity”. In addition, the “acetylated histone-H3 and p21” value in data set [25] (0-500 nM) is “concentration-dependent increase”. In [25] (highest dose levels), the “acetylated α-tubulin” value was “small increase”.
